# Legend:
# WEE1 = molecular target: T1, WEE1 (Homo sapiens, UniProt P30291+Q96SW2); experiment: Western-blot assay of substrate protein degradation in hPBMCs, WEE1; format: cell-based; settings: 24 hours of compound treatment, compounds tested at 50 nM and 500 nM (concentration of the table not stated)
# T1 construct: endogenous in cells; host or cells: hPBMCs (Milecell Biotechnologies)
# IKZF3 = molecular target: T2, IKZF3 (Homo sapiens, UniProt Q96SW2+Q9UKT9); experiment: Western-blot assay of substrate protein degradation in hPBMCs, IKZF3; format: cell-based; settings: 24 hours of compound treatment, compounds tested at 50 nM and 500 nM (concentration of the table not stated)
# T2 construct: endogenous in cells; host or cells: hPBMCs (Milecell Biotechnologies)
# T2 sequence (Q9UKT9 whole entry): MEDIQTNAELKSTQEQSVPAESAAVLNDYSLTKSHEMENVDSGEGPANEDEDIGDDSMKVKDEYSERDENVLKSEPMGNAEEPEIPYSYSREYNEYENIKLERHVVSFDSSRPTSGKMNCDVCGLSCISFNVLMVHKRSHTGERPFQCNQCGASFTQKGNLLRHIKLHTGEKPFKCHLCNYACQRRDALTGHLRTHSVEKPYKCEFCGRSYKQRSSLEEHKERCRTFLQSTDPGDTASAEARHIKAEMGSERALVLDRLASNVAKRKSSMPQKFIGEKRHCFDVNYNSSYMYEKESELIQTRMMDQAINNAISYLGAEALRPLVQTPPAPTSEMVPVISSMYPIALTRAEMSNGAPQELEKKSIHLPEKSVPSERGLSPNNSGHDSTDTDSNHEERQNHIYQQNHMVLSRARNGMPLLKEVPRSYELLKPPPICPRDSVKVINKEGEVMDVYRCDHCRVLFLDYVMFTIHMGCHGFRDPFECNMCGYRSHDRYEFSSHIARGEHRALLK
# T2 sequence (Q96SW2 whole entry): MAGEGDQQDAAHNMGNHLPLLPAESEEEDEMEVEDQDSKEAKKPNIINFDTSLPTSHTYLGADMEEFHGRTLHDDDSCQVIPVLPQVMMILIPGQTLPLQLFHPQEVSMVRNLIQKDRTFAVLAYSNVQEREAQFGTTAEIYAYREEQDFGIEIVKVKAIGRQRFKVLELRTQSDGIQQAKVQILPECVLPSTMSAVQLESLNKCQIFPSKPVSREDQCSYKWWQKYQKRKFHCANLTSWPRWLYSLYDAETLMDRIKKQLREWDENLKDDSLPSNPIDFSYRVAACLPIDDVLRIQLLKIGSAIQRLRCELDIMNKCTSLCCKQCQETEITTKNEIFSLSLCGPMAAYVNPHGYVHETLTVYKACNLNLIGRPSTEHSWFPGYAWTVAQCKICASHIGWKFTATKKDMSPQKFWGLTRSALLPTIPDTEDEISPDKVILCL
# T2 sequence (Q16531 whole entry partner): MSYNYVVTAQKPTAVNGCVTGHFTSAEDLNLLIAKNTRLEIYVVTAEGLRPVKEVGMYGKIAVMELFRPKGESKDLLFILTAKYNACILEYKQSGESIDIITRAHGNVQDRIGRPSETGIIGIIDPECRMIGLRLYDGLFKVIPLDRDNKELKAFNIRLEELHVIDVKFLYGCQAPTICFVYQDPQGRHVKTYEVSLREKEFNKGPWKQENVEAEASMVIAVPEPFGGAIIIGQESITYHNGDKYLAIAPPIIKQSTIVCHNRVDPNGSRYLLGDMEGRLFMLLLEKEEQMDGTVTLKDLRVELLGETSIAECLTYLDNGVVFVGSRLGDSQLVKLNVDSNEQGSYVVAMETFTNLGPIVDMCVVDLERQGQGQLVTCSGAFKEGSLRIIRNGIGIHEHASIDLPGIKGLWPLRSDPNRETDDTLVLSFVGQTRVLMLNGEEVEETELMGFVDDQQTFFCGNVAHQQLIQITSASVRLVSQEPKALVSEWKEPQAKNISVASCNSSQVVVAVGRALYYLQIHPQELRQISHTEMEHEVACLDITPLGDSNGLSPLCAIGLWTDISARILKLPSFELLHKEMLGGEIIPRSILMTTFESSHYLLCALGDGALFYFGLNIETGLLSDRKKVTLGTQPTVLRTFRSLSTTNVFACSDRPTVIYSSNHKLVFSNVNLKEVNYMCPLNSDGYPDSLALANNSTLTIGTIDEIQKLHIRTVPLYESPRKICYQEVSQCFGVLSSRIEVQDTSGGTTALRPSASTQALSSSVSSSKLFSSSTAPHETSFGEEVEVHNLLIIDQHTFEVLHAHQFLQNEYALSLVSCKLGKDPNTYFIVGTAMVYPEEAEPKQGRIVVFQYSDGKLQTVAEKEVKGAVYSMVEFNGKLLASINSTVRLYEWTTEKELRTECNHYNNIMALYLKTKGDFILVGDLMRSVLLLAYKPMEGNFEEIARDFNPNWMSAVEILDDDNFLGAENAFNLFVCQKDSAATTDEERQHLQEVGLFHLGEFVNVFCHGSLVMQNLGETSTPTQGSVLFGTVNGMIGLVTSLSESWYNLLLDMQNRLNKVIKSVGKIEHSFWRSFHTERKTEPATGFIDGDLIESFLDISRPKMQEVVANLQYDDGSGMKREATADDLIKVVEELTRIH
# NCI-H1975 = experiment: Tumor cell proliferation inhibition (CellTiter-Meiluncell Luminescent Cell Viability Assay), NCI-H1975; settings: Homo sapiens, NCI-H1975, read-out: inhibitory activity (IC50, nM) against tumor cells proliferation, H1975
# IKZF2 = molecular target: T3, IKZF2 (Homo sapiens, UniProt Q96SW2+Q9UKS7); experiment: Western-blot assay of substrate protein degradation in hPBMCs, IKZF2; format: cell-based; settings: 24 hours of compound treatment, compounds tested at 50 nM and 500 nM (concentration of the table not stated)
# T3 construct: endogenous in cells; host or cells: hPBMCs (Milecell Biotechnologies)
# T3 sequence (Q9UKS7 whole entry): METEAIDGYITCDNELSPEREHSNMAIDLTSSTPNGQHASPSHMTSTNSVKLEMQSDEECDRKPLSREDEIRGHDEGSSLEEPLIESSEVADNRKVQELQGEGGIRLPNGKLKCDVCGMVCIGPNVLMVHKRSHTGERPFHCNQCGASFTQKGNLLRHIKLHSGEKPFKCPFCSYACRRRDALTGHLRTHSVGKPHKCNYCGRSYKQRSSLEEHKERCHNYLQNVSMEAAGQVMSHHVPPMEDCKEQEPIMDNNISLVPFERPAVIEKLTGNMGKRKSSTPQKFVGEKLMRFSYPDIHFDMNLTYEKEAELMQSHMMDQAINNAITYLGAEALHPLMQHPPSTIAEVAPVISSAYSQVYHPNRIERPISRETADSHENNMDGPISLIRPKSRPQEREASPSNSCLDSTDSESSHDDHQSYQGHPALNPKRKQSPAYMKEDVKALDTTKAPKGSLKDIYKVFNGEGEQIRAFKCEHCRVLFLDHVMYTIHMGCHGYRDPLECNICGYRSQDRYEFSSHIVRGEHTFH
# T3 sequence (Q96SW2 whole entry): as the sequence (Q96SW2 whole entry) above
# T3 sequence (Q16531 whole entry partner): as the sequence (Q16531 whole entry partner) above
# Jurkat = experiment: Tumor cell proliferation inhibition (CellTiter-Meiluncell Luminescent Cell Viability Assay), Jurkat; settings: Homo sapiens, read-out: inhibitory activity (IC50, nM) against tumor cells proliferation, Jurkat
# IKZF1 = molecular target: T4, IKZF1 (Homo sapiens, UniProt Q13422+Q96SW2); experiment: Western-blot assay of substrate protein degradation in hPBMCs, IKZF1; format: cell-based; settings: 24 hours of compound treatment, compounds tested at 50 nM and 500 nM (concentration of the table not stated)
# T4 construct: endogenous in cells; host or cells: hPBMCs (Milecell Biotechnologies)
# T4 sequence (Q13422 whole entry): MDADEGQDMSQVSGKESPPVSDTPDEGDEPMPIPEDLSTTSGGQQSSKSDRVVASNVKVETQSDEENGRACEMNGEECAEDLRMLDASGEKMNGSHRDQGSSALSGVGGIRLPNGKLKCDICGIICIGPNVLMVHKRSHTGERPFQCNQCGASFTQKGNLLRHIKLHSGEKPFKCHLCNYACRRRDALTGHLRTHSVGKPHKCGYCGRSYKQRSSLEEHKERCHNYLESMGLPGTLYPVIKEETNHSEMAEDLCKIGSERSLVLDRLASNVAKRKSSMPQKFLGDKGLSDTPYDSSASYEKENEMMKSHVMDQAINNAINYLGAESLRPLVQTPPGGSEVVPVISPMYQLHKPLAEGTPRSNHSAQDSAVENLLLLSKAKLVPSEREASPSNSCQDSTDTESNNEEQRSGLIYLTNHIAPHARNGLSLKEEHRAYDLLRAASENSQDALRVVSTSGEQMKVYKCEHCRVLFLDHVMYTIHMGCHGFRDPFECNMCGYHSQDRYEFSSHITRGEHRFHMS
# T4 sequence (Q96SW2 whole entry): as the sequence (Q96SW2 whole entry) above
# T4 sequence (Q16531 whole entry partner): as the sequence (Q16531 whole entry partner) above
# MM.1S = experiment: Tumor cell proliferation inhibition (CellTiter-Meiluncell Luminescent Cell Viability Assay), MM.1S; settings: Homo sapiens, MM1.S, read-out: inhibitory activity (IC50, nM) against tumor cells proliferation, MM.1S
# Method: (§1) The tumor cells used herein were cultured in a cell culture medium listed in table 2 at 37°C in an incubator with 5% CO2. Prior to experimentation, all cell lines used were correctly identified by STR profiling, and tested negative for mycoplasma contamination using a mycoplasma detection kit through routine screenings.
# On the following day, the test compounds of the present disclosure were subjected to serial dilution. […] Subsequently, 0.5 µL of the test compound dilution was transferred into the 96-well plate containing the cells, with each well containing 100 µL of cell culture medium. […] Into the 96-well plate, the diluted test compounds and corresponding detection reagents were added, resulting in final test compound concentrations of 500 nM and 10 nM, respectively.
# (§2) After the cells were treated with the compounds of the present disclosure for a specified period (the treatment durations were shown in Table 3), the cell viability assay reagent was added to the culture medium according to the kit's instructions to determine cell viability. […] All controls were treated using the same procedure as the compounds of the present disclosure. The growth inhibition curves for the compounds of the present disclosure were plotted using Prism GraphPad software, and the IC50 values were calculated therefrom.
# GSPT1 = molecular target: T5, GSPT1 (Homo sapiens, UniProt P15170+Q96SW2); experiment: Western-blot assay of substrate protein degradation in hPBMCs, GSPT1; format: cell-based; settings: 24 hours of compound treatment, compounds tested at 50 nM and 500 nM (concentration of the table not stated)
# T5 construct: endogenous in cells; host or cells: hPBMCs (Milecell Biotechnologies)
# SR = experiment: Tumor cell proliferation inhibition (CellTiter-Meiluncell Luminescent Cell Viability Assay), SR; settings: Homo sapiens, read-out: inhibitory activity (IC50, nM) against tumor cells proliferation, SR
# CK1α = molecular target: T6, CK1α (Homo sapiens, UniProt P48729+Q96SW2); experiment: Western-blot assay of substrate protein degradation in hPBMCs, CK1α; format: cell-based; settings: 24 hours of compound treatment, compounds tested at 50 nM and 500 nM (concentration of the table not stated)
# T6 construct: endogenous in cells; host or cells: hPBMCs (Milecell Biotechnologies)
# T6 sequence (P48729 whole entry): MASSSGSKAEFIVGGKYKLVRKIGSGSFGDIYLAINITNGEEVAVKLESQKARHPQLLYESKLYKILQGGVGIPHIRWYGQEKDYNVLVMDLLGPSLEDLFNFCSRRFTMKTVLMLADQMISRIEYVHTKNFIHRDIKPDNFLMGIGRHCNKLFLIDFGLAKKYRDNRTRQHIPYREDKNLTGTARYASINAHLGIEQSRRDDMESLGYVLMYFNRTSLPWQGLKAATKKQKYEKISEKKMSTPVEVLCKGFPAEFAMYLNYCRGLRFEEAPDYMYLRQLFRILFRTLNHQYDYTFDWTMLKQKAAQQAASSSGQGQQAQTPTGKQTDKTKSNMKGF
# T6 sequence (Q96SW2 whole entry): as the sequence (Q96SW2 whole entry) above
# T6 sequence (Q16531 whole entry partner): as the sequence (Q16531 whole entry partner) above
# [1] = molecular target: T7, human Cereblon WT GST-tagged protein (Homo sapiens, UniProt Q96SW2); experiment: CRBN-binding affinity by HTRF (CEREBLON BINDING kit); settings: HTRF inhibitory activity, CEREBLON BINDING kit; read-out: HTRF IC50
# T7 construct: purchased CISBIO 64BDCRBNPEH
# T7 sequence (Q96SW2 whole entry): as the sequence (Q96SW2 whole entry) above
# TMD8 = experiment: Tumor cell proliferation inhibition (CellTiter-Meiluncell Luminescent Cell Viability Assay), TMD8; settings: Homo sapiens, TMD8, read-out: inhibitory activity (IC50, nM) against tumor cells proliferation, TMD8
# Method: as §1
# On the following day, the test compounds of the present disclosure were subjected to serial dilution. […] Subsequently, 0.5 µL of the test compound dilution was transferred into the 96-well plate containing the cells, with each well containing 100 µL of cell culture medium. […] Into the 96-well plate, the diluted test compounds and corresponding detection reagents were added, resulting in final test compound concentrations of 500 nM and 10 nM, respectively. The experimental procedure is described below using the diluted 2 µM test compound as an example.
# as §2
# T1 sequence (P30291 whole entry): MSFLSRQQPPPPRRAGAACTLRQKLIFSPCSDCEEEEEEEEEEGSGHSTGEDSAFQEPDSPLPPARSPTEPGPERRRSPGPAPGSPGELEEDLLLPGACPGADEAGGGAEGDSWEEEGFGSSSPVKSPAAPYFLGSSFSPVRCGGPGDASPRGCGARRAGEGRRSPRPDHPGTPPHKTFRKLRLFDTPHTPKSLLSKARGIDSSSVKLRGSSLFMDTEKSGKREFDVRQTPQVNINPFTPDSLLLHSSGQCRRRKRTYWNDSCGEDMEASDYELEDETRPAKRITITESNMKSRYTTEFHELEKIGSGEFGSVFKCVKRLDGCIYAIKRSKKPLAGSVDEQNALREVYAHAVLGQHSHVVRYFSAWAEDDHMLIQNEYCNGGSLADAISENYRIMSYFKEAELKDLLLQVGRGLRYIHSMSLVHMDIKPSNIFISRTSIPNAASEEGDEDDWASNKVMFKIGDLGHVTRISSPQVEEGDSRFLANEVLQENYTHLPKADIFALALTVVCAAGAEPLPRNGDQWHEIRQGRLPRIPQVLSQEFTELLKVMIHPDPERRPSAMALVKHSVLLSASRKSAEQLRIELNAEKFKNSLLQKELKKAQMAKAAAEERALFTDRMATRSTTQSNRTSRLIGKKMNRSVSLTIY
# T1 sequence (Q96SW2 whole entry): as the sequence (Q96SW2 whole entry) above
# T1 sequence (Q16531 whole entry partner): as the sequence (Q16531 whole entry partner) above
Compound,Weel substrate protein remaining % (WEE1),IKZF3 substrate protein remaining % (IKZF3),IC50 (NCI-H1975) [nM],IKZF2 substrate protein remaining % (IKZF2),IC50 (Jurkat) [nM],IKZF 1 substrate protein remaining % (IKZF1),IC50 (MM.1S) [nM],GSPT1 substrate protein remaining % (GSPT1),IC50 (SR) [nM],CK1a substrate protein remaining % (CK1α),IC50 [1] [µM],IC50 (TMD8) [nM]
"O=C1CCC(N2Cc3cc(CN4C5CCC4CN(c4cccc(Cl)c4Cl)C5)ccc3C2=O)C(=O)N1 (stereo not shown) [GT-04855, 3-(5-((3-(2,3-dichlorophenyl)-3,8-diazabicyclo[3.2.1]octan-8-yl)methyl)-1-oxoisoindolin-2-yl)piperidine-2,6-dione]",A (0% ≤ substrate protein remaining % ≤ 80%),A (0% ≤ substrate protein remaining % ≤ 80%),50 to 100,A (0% ≤ substrate protein remaining % ≤ 80%),50 to 100,A (0% ≤ substrate protein remaining % ≤ 80%),5 to 10,A (0% ≤ substrate protein remaining % ≤ 80%),500 to 1000,B (80%< substrate protein remaining %≤ 100%),< 0.5,–
"O=C1CCC(N2Cc3cc(CN4CCN(c5nc(N6CCOCC6)nc6ccsc56)CC4)ccc3C2=O)C(=O)N1 (stereo not shown) [GT-04903, 3-(5-((4-(2-morpholinothieno[3,2-d]pyrimidin-4-yl)piperazin-1-yl)methyl)-1-oxoisoindolin-2-yl)piperidine-2,6-dione]",B (80%< substrate protein remaining %≤ 100%),A (0% ≤ substrate protein remaining % ≤ 80%),–,A (0% ≤ substrate protein remaining % ≤ 80%),–,B (80%< substrate protein remaining %≤ 100%),10 to 50,A (0% ≤ substrate protein remaining % ≤ 80%),–,A (0% ≤ substrate protein remaining % ≤ 80%),< 0.5,–
"O=C1CCC(N2Cc3cc(CN4CCC(n5cnc6cc(F)ccc65)CC4)ccc3C2=O)C(=O)N1 (stereo not shown) [GT-04905, 3-(5-((4-(5-fluoro-1H-benzo[d]imidazol-1-yl)piperidin-1-yl)methyl)-1-oxoisoindolin-2-yl)piperidine-2,6-dione]",B (80%< substrate protein remaining %≤ 100%),A (0% ≤ substrate protein remaining % ≤ 80%),100 to 500,A (0% ≤ substrate protein remaining % ≤ 80%),100 to 500,B (80%< substrate protein remaining %≤ 100%),1 to 5,A (0% ≤ substrate protein remaining % ≤ 80%),–,B (80%< substrate protein remaining %≤ 100%),< 0.5,–
"O=C1CCC(N2Cc3cc(CN4CCC(c5noc6ccccc56)CC4)ccc3C2=O)C(=O)N1 (stereo not shown) [GT-04907, 3-(5-((4-(benzo[d]isoxazol-3-yl)piperidin-1-yl)methyl)-1-oxoisoindolin-2-yl)piperidine-2,6-dione]",A (0% ≤ substrate protein remaining % ≤ 80%),A (0% ≤ substrate protein remaining % ≤ 80%),50 to 100,A (0% ≤ substrate protein remaining % ≤ 80%),50 to 100,A (0% ≤ substrate protein remaining % ≤ 80%),1 to 5,A (0% ≤ substrate protein remaining % ≤ 80%),–,B (80%< substrate protein remaining %≤ 100%),< 0.5,–
"O=C1CCC(N2C(=O)c3ccc(CN4CCN(c5cccc6sccc56)CC4)cc3C2=O)C(=O)N1 (stereo not shown) [GT-04915, 5-((4-(benzo[b]thiophen-4-yl)piperazin-1-yl)methyl)-2-(2,6-dioxopiperidin-3-yl)isoindoline-1,3-dione]",A (0% ≤ substrate protein remaining % ≤ 80%),A (0% ≤ substrate protein remaining % ≤ 80%),500 to 1000,A (0% ≤ substrate protein remaining % ≤ 80%),100 to 500,A (0% ≤ substrate protein remaining % ≤ 80%),100 to 500,A (0% ≤ substrate protein remaining % ≤ 80%),–,A (0% ≤ substrate protein remaining % ≤ 80%),–,–
"O=C1CCC(N2Cc3cc(CN4CC5CCC4CN5c4cccc(Cl)c4Cl)ccc3C2=O)C(=O)N1 (stereo not shown) [GT-04930, 3-(5-((5-(2,3-dichlorophenyl)-2,5-diazabicyclo[2.2.2]octan-2-yl)methyl)-1-oxoisoindolin-2-yl)piperidine-2,6-dione]",A (0% ≤ substrate protein remaining % ≤ 80%),A (0% ≤ substrate protein remaining % ≤ 80%),–,A (0% ≤ substrate protein remaining % ≤ 80%),–,A (0% ≤ substrate protein remaining % ≤ 80%),10 to 50,A (0% ≤ substrate protein remaining % ≤ 80%),–,B (80%< substrate protein remaining %≤ 100%),< 0.5,–
"Cc1nc(C2=CCN(Cc3ccc4c(c3)CN(C3CCC(=O)NC3=O)C4=O)CC2)c2c3c(sc2n1)CCC3 (stereo not shown) [GT-05211, 3-(5-((4-(2-methyl-6,7-dihydro-5H-cyclopenta[4,5]thieno[2,3-d]pyrimidin-4-yl)-3,6-dihydropyridin-1(2H)-yl)methyl)-1-oxoisoindolin-2-yl)piperidine-2,6-dione]",A (0% ≤ substrate protein remaining % ≤ 80%),A (0% ≤ substrate protein remaining % ≤ 80%),–,A (0% ≤ substrate protein remaining % ≤ 80%),–,A (0% ≤ substrate protein remaining % ≤ 80%),50 to 100,A (0% ≤ substrate protein remaining % ≤ 80%),–,A (0% ≤ substrate protein remaining % ≤ 80%),< 0.5,–
"O=C1CCC(N2Cc3cc(CN4CCN(c5n[nH]c6cc(F)ccc56)CC4)ccc3C2=O)C(=O)N1 (stereo not shown) [GT-05264, 3-(5-((4-(6-fluoro-1H-indazol-3-yl)piperazin-1-yl)methyl)-1-oxoisoindolin-2-yl)piperidine-2,6-dione]",A (0% ≤ substrate protein remaining % ≤ 80%),A (0% ≤ substrate protein remaining % ≤ 80%),–,A (0% ≤ substrate protein remaining % ≤ 80%),–,A (0% ≤ substrate protein remaining % ≤ 80%),1 to 5,A (0% ≤ substrate protein remaining % ≤ 80%),–,A (0% ≤ substrate protein remaining % ≤ 80%),0.5 to 1,10 to 50
"O=C1CCC(N2Cc3cc(CN4CC=C(c5ncnc6sc7c(c56)CCCC7)CC4)ccc3C2=O)C(=O)N1 (stereo not shown) [GT-05266, 3-(1-oxo-5-((4-(5,6,7,8-tetrahydrobenzo[4,5]thieno[2,3-d]pyrimidin-4-yl)-3,6-dihydropyridin-1(2H)-yl)methyl)isoindolin-2-yl)piperidine-2,6-dione]",A (0% ≤ substrate protein remaining % ≤ 80%),A (0% ≤ substrate protein remaining % ≤ 80%),–,A (0% ≤ substrate protein remaining % ≤ 80%),–,A (0% ≤ substrate protein remaining % ≤ 80%),5 to 10,A (0% ≤ substrate protein remaining % ≤ 80%),–,A (0% ≤ substrate protein remaining % ≤ 80%),< 0.5,10 to 50
"O=C1CCC(N2Cc3cc(CN4CCN(c5nc(N6CCCCC6)nc6c5SCC6)CC4)ccc3C2=O)C(=O)N1 (stereo not shown) [GT-05380, 3-(1-oxo-5-((4-(2-(piperidin-1-yl)-6,7-dihydrothieno[3,2-d]pyrimidin-4-yl)piperazin-1-yl)methyl)isoindolin-2-yl)piperidine-2,6-dione]",A (0% ≤ substrate protein remaining % ≤ 80%),A (0% ≤ substrate protein remaining % ≤ 80%),–,A (0% ≤ substrate protein remaining % ≤ 80%),–,A (0% ≤ substrate protein remaining % ≤ 80%),1 to 5,A (0% ≤ substrate protein remaining % ≤ 80%),–,A (0% ≤ substrate protein remaining % ≤ 80%),0.5 to 1,10 to 50

# — patent EP4745137A1 (Gluetacs Therapeutics (Shanghai) Co., Ltd., priority 2023, dated 2025)
